These results are taken from ChEMBL document CHEMBL4251694 (ACS Med Chem Lett, 2018).

For data set [1], the system named is Influenza A virus. Put plainly: Antiviral activity against Influenza A virus A/Udorn/72 H3N2 infected in MDCK cells assessed as reduction in virus-induced cytopathic effect by crystal violet staining based light-microscopic analysis. It counts as functional, organism-based, Influenza A virus (A/udorn/1972(H3N2)). In general terms: Damage to the host cells serves as the signal in cytopathic effect assays.

The subject of data set [2] is Influenza A virus. The data set is described as follows: Antiviral activity against Influenza A virus A/WSN/33 H1N1 infected in MDCK cells assessed as reduction in virus-induced cytopathic effect by crystal violet staining based light-microscopic analysis. It counts as functional, organism-based. Particulars: A/WSN/1933(H1N1).
A short description of data set [3]: Cytotoxicity against MDCK cells after 72 hrs by crystal violet staining based spectrophotometric method. Type of data set: cell-based, Canis lupus familiaris. Particulars: dog.
Data set [4] deals with Matrix protein 2 (Influenza A virus (A/Udorn/307/1972(H3N2)), UniProt P0DOF8). The data set is described as follows: Binding affinity to Influenza A virus A/Udorn/72 wild-type M2 proton channel expressed in Xenopus laevis oocytes at pH 5.5 by two-electrode voltage clamp assay. It counts as cell-based, Influenza A virus (A/udorn/1972(H3N2)). For orientation: Two-electrode voltage clamp holds a large cell at a set potential and records current.

For data set [5], the system named is Influenza A virus. The data set is described as follows: Antiviral activity against Influenza A virus (A/Hong Kong/68(H3N2)) infected in MDCK cells assessed as reduction in virus-induced cytopathic effect by crystal violet staining based light-microscopic analysis. Type of data set: functional, organism-based.
For data set [6], the target named is Matrix protein 2 (Influenza A virus (A/Udorn/307/1972(H3N2)), UniProt P0DOF8). Put plainly: Binding affinity to Influenza A virus A/Udorn/72 wild-type M2 proton channel by isothermal calorimetric titration. Also on record: species or system Influenza A virus (A/udorn/1972(H3N2)). (ITC needs no label: the signal is the heat of the interaction.)
Data set [7] concerns Influenza A virus. Put plainly: Antiviral activity against Influenza A virus A/Udorn/72 H3N2 infected in MDCK cells assessed as reduction in plaque size by crystal violet staining based assay. Type of data set: functional, organism-based. Particulars: Influenza A virus (A/udorn/1972(H3N2)).
Data set [8] relates to Influenza A virus. The data set is described as follows: Antiviral activity against Influenza A virus A/Udorn/72 H3N2 infected in MDCK cells assessed as reduction in plaque formation by crystal violet staining based assay. The settings on record: Influenza A virus (A/udorn/1972(H3N2)). Type of data set: functional, organism-based.
Data set [9] addresses Matrix protein 2 (Influenza A virus (A/Udorn/307/1972(H3N2)), UniProt P0DOF8). The data set is described as follows: Inhibition of Influenza A virus A/Udorn/72 wild-type M2 proton channel expressed in Xenopus laevis oocytes assessed as blockade of inward currents at pH 5.5 after 2 mins by two-electrode voltage clamp assay. Type of data set: cell-based, Influenza A virus (A/udorn/1972(H3N2)).

Data set [10] shares this target. The data set is described as follows: Inhibition of Influenza A virus A/Udorn/72 wild-type M2 proton channel expressed in Xenopus laevis oocytes assessed as blockade of inward currents at pH 5.5 after 5 mins by two-electrode voltage clamp assay. Type of data set: cell-based, Influenza A virus (A/udorn/1972(H3N2)).

The source made the active and inactive calls. The calls are words filed in the database; no cut-off is given here. Bounds are passed on as bounds.

Sequence of Matrix protein 2 (Influenza A virus (A/Udorn/307/1972(H3N2)), UniProt P0DOF8) (P0DOF8 whole entry): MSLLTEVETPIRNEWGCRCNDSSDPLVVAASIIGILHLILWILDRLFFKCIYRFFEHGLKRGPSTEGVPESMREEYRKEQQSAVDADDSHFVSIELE

As a reminder, the EC50 is the concentration giving half of the maximal effect. Broadly, the CC50 is the concentration at which the toxic effect on the cells reaches its halfway point. Low readings indicate greater toxicity to the cells, high ones lower toxicity to the cells. One may read the Kd as the equilibrium constant for the complex coming apart. The low end stands for higher affinity, the high end for lower affinity. Consider `CCCC(N)(CCC)C12CC3CC(CC(C3)C1)C2`, for which the EC50 is 1.07 µM in [1], greater than 100 µM in [2] and 0.45 µM in data set [5]. Also, the midpoint of cytotoxicity in data set [3], the CC50 at 72 h, lay at 57.3 µM. In addition, the Kd was 88 µM in data set [4] and 3.43 µM in data set [6]. Besides, in data set [7], the outcome was Active. The outcome in data set [8] was inactive.

For the molecule `CCOC(=O)C1=C[C@@H](OC(CC)CC)[C@H](NC(C)=O)[C@@H](N)C1` [OSELTAMIVIR], the EC50 in data set [1] amounted to 0.001 µM; in data set [2] it was 0.03 µM; in [5] it was 0.002 µM. For the same molecule, in [3], the half-maximal cytotoxic concentration (CC50) at 72 h was greater than 100 µM.

As to `C[C@@H](N)C12CC3CC(CC(C3)C1)C2`, the EC50 was 0.05 µM in [1] and greater than 100 µM in data set [2]. Besides, the CC50 at 72 h in data set [3] was greater than 100 µM. The outcome in data set [8] was Active.

As a reminder, the IC50 is the midpoint of a concentration-inhibition curve. In the case of `CC(C)(N)C12CC3CC(CC(C3)C1)C2`, the IC50 in data set [9] was found to be 9.3 µM; in [10], 4 µM. For the same molecule, the EC50 in data set [1] was 0.01 µM; in data set [2] it was greater than 100 µM; in [5] it was 0.012 µM. This molecule displayed a CC50 at 72 h in [3] greater than 100 µM. The Kd in data set [4] came to 13 µM; in [6] it was 0.13 µM. Moreover, the outcome in [8] was Active.

Consider `CC(N)C12CC3CC(CC(C3)C1)C2` (stereo unspecified) [RIMANTADINE], for which the EC50 in [1] was 0.09 µM; in [2], greater than 100 µM; in [5] it was 0.05 µM. This molecule displayed a CC50 at 72 h in [3] greater than 100 µM. Moreover, the result in data set [8] was Active.

Consider `CCC(N)(CC)C12CC3CC(CC(C3)C1)C2`, for which the IC50 in [9] turned out to be 24.3 µM; in data set [10], 13.2 µM. For the same molecule, the values for the EC50 in [1], in data set [2] and in data set [5] were 0.41 µM, greater than 100 µM and 0.46 µM, respectively. Further, the CC50 at 72 h in [3] is greater than 100 µM. In data set [6], the Kd was determined as 4.59 µM. The result in data set [8] was Active.

`C[C@H](N)C12CC3CC(CC(C3)C1)C2`: the EC50 in data set [1] was 0.06 µM; in data set [2] it was greater than 100 µM. For the same molecule, the CC50 at 72 h in [3] was greater than 100 µM. Further, the result in data set [8] was Active.

With `NC12CC3CC(CC(C3)C1)C2` [AMANTADINE], the EC50 was 0.78 µM in data set [1] and greater than 100 µM in data set [2]. For the same molecule, the CC50 at 72 h in data set [3] is greater than 100 µM. For the same molecule, the outcome in data set [8] was Active.
